The text below walks through data of patent publication US12370255B2, “Peptide-based vaccines, methods of manufacturing, and uses thereof for inducing an immune response” (Barinthus Biotherapeutics North America, Inc., priority 2017, dated 2025).

Entries after “also recorded” stand apart in the source; their conditions may differ. *1 amine or outer side, *2 acyl side, *3 side chain or, on linkers, in order; H or OH if unused. Where a SMILES comes first, the peptide text is derived from it. Where no end group is shown, it is not given here. Side-chain parts run from the residue outwards. The star is where a group is joined. 2B = 1-(4-aminobutyl)-2-butyl-1H-imidazo[4,5-c]quinolin-4-amine, CCCCc1nc2c(N)nc3ccccc3c2n1CCCCN*; X2 = CCCCNc1nc(N)c2nc(O)n(Cc3ccc(C(=O)NCC(=O)NCCCn4nnc5c4-c4ccccc4N(*)Cc4ccccc4-5)cc3)c2n1; X1 = C1=C\c2ccccc2N(*)Cc2ccccc2/1; Suc = O=C(CCC(=O)[*:2])[*:1]

A short description of data set [1]: hydrodynamic behavior: water solubility, particle size by dynamic light scattering and turbidity in PBS pH 7.4. The class given is physicochemical. The note with it: aqueous buffer at pH about 7.4. The source says:
FIG. 4: Molecular weight and hydrodynamic behavior of peptide antigens (A) and peptide antigen conjugates delivering peptide antigens (A) comprised of either synthetic long peptides (SLP or “LP”) or minimal (“Min”) CD8 T cell epitopes derived from the MC38 tumor cell line. […] FIG. 4 discloses SEQ ID NOS 190-199, 623 and 200, respectively, in order of appearance. FIG. 18: Impact of peptide antigen conjugate net charge and hydrophobic molecule composition on hydrodynamic behavior. The hydrodynamic behavior of a range of different peptide antigen conjugates of Formula V at 0.1 mg/mL or 0.5 mg/mL in PBS at a pH of 7.4 was assessed by dynamic light scattering. […] Turbidity was determined by measuring the absorbance of the solution at 490 nm. […] (A) The impact of net charge on the hydrodynamic behavior of a range of different peptide antigen conjugates of Formula V suspended at 0.1 mg/mL or 0.5 mg/mL in PBS at a pH of 7.4 was assessed by dynamic light scattering. […] The hydrodynamic behavior of a range of different peptide antigen conjugates suspended at 0.1 mg/mL in PBS at a pH of 7.4 was assessed by dynamic light scattering. […] Particle size was assessed by dynamic light scattering with the peptide antigen conjugate suspended at 0.5 mg/mL in PBS at a pH of 7.4. […] Solubility can be determined by visual inspection, by turbidity measurements or by dynamic light scattering.

For the next data set, the system named is T cells. The data set is described as follows: T cell responses in vivo induced by peptide antigen conjugates. The note with it: immunogenic compositions of peptide antigen conjugates. The source says: FIG. 37 discloses SEQ ID NOS 580-585, respectively, in order of appearance.
FIG. 38 discloses SEQ ID NOS 586-602, respectively, in order of appearance.
FIG. 39 discloses SEQ ID NOS 603-605 and 605, respectively, in order of appearance.
FIG. 40 discloses SEQ ID NOS 606-610, respectively, in order of appearance.
FIG. 41 discloses SEQ ID NOS 603-605, 103 and 611, respectively, in order of appearance.
FIG. 42 discloses SEQ ID NO: 104.
FIG. 45 discloses SEQ ID NOS 619, 620, 619, 621, 180 and 622, respectively, in order of appearance.

For a further data set, the system named is CD8 T cells. Put plainly: antigen-specific CD8 T cell responses (% IFNg+ of total CD8 T cells) from whole blood of immunized mice. It is filed as in vivo. To be noted: native LP neoantigen admixed with pICLC; immunized days 0 and 14, day 28.

Source text for CD8 T cells: Mice (N=5 per group) were immunized with different immunogenic compositions comprising peptide antigens (A) based on either the synthetic long peptide (LP, sometimes referred to as “SLP”) or the minimal CD8 T cell epitope (Min, sometimes referred to as ME) of the antigen Irgq derived from the MC38 tumor cell line either as the peptide antigen (A) alone admixed with the TLR-7/8a adjuvant; as the peptide antigen (A) linked to a hydrophobic molecule (H), W3, and admixed with the TLR-7/8a adjuvant; or as the peptide antigen (A) linked to a hydrophobic molecule (H) co-delivering a TLR-7/8a adjuvant, 2BXy3. Mice were immunized at days 0 and 14 and antigen-specific CD8 T cell responses (% IFNg+ of total CD8 T cells) were assessed from whole blood at days 0 and 25. Open circles indicate that the peptide antigen (A) was soluble (i.e. non-particulate), whereas closed circles indicate that the mice received a particulate immunogenic composition of the peptide antigen (A).
Mice (N=5 per group) were immunized with different immunogenic compositions comprising peptide antigens (A) based on either the synthetic long peptide (LP) or minimal CD8 T cell epitope (Min) of the antigen Cpne1 derived from the MC38 tumor cell line either as the peptide antigen (A) alone admixed with the TLR-7/8a adjuvant; as the peptide antigen (A) linked to a hydrophobic molecule (H), W3, and admixed with the TLR-7/8a adjuvant; or as the peptide antigen (A) linked to a hydrophobic molecule (H) co-delivering a TLR-7/8a adjuvant, 2BXy3. Mice were immunized at days 0 and 14 and antigen-specific CD8 T cell responses (% IFNg+ of total CD8 T cells) were assessed from whole blood at days 0 and 25. […]
Mice (N=5 per group) were immunized with immunogenic compositions comprising 4 unique peptide antigen conjugates delivering a distinct MC38 tumor derived minimal CD8 T cell epitopes (40 total epitopes) that were linked to either 2BXy5 or 2B5 hydrophobic molecules (H). Mice were immunized at days 0 and 14 and antigen-specific CD8 T cell responses (% IFNg+ of total CD8 T cells) were assessed from whole blood at day 24.

In the case of “Compound 16 (GGE(2B)GGE(2B)GGE(2B)GGE(2B)GGE(2B); also: DBCO)”, the “particle formation and stability (in words)” value in data set [1] was “formed stable nanoparticle micelles”. For the same compound, the “T cell responses in vivo (in words)” value in the data set with T cells was “high magnitude T cell responses”.
In the same order, the values of “Compound 20 (KGWGWGKGWGWGKGWGWGKGWGWGKGWGWG; not fully specified (residues 1, 7, 13, 19, 25))” are “formed stable nanoparticle micelles” and “high magnitude T cell responses”.
On to `CCCCNc1nc(N)c2nc(O)n(Cc3ccc(C(=O)NCC(=O)NCCCn4nnc5c4-c4ccccc4N(C(=O)CCC(=O)NCCCCC(NC(=O)CNC(=O)CCC(=O)N4Cc6ccccc6/C=C\c6ccccc64)C(=O)NCC(=O)NC(Cc4c[nH]c6ccccc46)C(=O)NC(Cc4c[nH]c6ccccc46)C(=O)NC(Cc4c[nH]c6ccccc46)C(=O)NC(Cc4c[nH]c6ccccc46)C(=O)NC(Cc4c[nH]c6ccccc46)C(N)=O)Cc4ccccc4-5)cc3)c2n1` (centres unmarked) [Compound 30] ({X1-Suc}-GK([Suc-X2])GWWWWW-NH2; configuration not given here), for which the “T cell responses in vivo (in words)” value in the data set with T cells is “highest magnitude responses”.
For “Adpgk: native LP neoantigen from MC38 that assembles into particles; minimal epitope Ala-Ser-Met-Thr-Asn-Met-Glu-Leu-Met (ASMTNMELM)”, the “CD8 T cell responses (in words)” value with CD8 T cells is “significant increase in CD8 T cell responses over background; also recorded: immunogenic”.
As to `CCCCc1nc2c(N)nc3ccccc3c2n1CCCCNC(=O)CCC(NC(=O)C(Cc1c[nH]c2ccccc12)NC(=O)C(CCC(=O)NCCCCn1c(CCCC)nc2c(N)nc3ccccc3c21)NC(=O)C(Cc1c[nH]c2ccccc12)NC(=O)C(CCC(=O)NCCCCn1c(CCCC)nc2c(N)nc3ccccc3c21)NC(=O)CCC(=O)N1Cc2ccccc2-c2c(nnn2CCCCC(=O)NC(CCCCN)C(=O)NC(CCCCN)C(=O)NC(CCCCN)C(=O)NC(CCCCN)C(=O)NC(CCCCN)C(=O)NC(CCCCN)C(=O)NC(CCCCN)C(=O)NC(CCCCN)C(=O)NC(CCCCN)C(=O)NC(CCCCN)C(N)=O)-c2ccccc21)C(N)=O` (centres unmarked) [Compound 42], in the data set on T cells, the “T cell responses in vivo (in words)” value is given as “high magnitude T cell immunity”.
Regarding “Cpne1: native LP neoantigen derived from the MC38 tumor cell line, water soluble; minimal epitope Ser-Ser-Pro-Tyr-Ser-Leu-His-Tyr-Leu (SSPYSLHYL)”, in the data set on CD8 T cells, the “CD8 T cell responses (in words)” value is reported as “no CD8 T cell responses”.
